{"source": "patent US20060276465A1", "about": "“1,2-di(cyclic) substituted benzene compounds” (Eisai R&D Management Co., Ltd., priority 2003, published 2006)", "tested_on": "Balb/c mice", "assay": "Oxazolone-induced colon neutrophil infiltration model", "assay_type": "in vivo", "details": "Mus musculus, po, 4 h, colon myeloperoxidase activity vs oxazolone control group, male Balb/c mice, 30 mg/kg orally 30 minutes before intrarectal oxazolone, colons taken four hours after, read-out: Inhibitory rate (%)", "method": "Evaluation of Compounds in Oxazolone-Induced Colon Neutrophil Infiltration Model\n<Sensitization with Oxazolone>\nFive- to six-week-old male Balb/c mice (Charles River Japan) were shaven at the abdomen to an approximately 2 cm square area. A 100% ethanol solution containing 3% 4-ethoxymethylene-2-phenyl-2-oxazolin-5-one (hereinafter referred to as “oxazolone”; Sigma) was applied at 150 μl onto the abdomen of each mouse.\n<Preparation of Emulsion Containing Oxazolone>\nDistilled water (Otsuka Pharmaceutical) was added in an equivalent volume to 100% peanut oil (Kanto Kagaku) containing 1% oxazolone, and the components were vigorously mixed with a glass syringe (Top Co.), to prepare an emulsion containing 0.5% oxazolone.\n<Induction with Oxazolone> […]\nEach compound was suspended or dissolved in an aqueous solution containing 0.5% methyl cellulose (Wako), and orally administered at 30 mg/kg 30 minutes prior to the intrarectal injection of oxazolone emulsion. […] Specifically, to 10 μl of the obtained supernatant was added 200 μl of 50 mM KPB (pH6.0) containing 0.017% o-dianisidine (Sigma) and 0.0005% hydrogen peroxide (Wako), incubated at 37° C., and the change in absorbance at 450 nm was continuously measured for 1 minute using an EL340 Automated Microplate Reader (BIO-TEK) in kinetic mode. The units were the rate of change in absorbance per minute (mO.D./min.). […]", "data": [{"smiles": "COCCN1CCN(c2ccccc2C2CCC(C(C)(C)C)CC2)CC1.Cl", "note": "(stereo not shown) [Example 19, 1-[2-(4-t-Butylcyclohexyl)phenyl]-4-(2-methoxyethyl)piperazine hydrochloride]", "values": [{"measurement": "inhibition in vivo at 30 mg/kg", "value": 53, "unit": "%"}]}]}
